Where a name gives a salt, the structure may show the parent alone.
Tests used:
[1] = system: full length SMN2 minigene mRNA (HEK293H cells stably transfected with the SMN2-A minigene construct); assay: RT-qPCR assay for SMN2 minigene pre-mRNA splicing in cultured cells; type: cell-based; settings: Homo sapiens, HEK293-H, 24 hours, 7-point concentration curve, concentration giving 1.5-fold FL SMN2mini mRNA vs vehicle, read-out: EC1.5x minigene (EC1.5x concentration for production of full length SMN2 minigene mRNA)
Description: The reverse transcription-quantitative PCR-based (RT-qPCR) assay is used to quantify the level of the full length SMN2 minigene (referred to herein by the term “FL SMN2mini”) mRNA containing SMN2 exon 7 in a HEK293H cell line stably transfected with said minigene and treated with a test compound. Materials used and respective sources are listed below in Table 1.
The SMN2-A minigene construct was prepared as described in International Patent Application WO2009/151546A1 page 145 paragraph [00400] to page 147 paragraph [00412] (incl. FIG. 1 and FIG. 3 therein).
HEK293H cells stably transfected with the SMN2-A minigene construct (10,000 cells/well) are seeded in 200 μL of cell culture medium (DMEM plus 10% FBS, with 200 μg/mL hygromycin) in 96-well flat-bottom plates and the plate is immediately swirled to ensure proper dispersal of cells and the formation of an even monolayer of cells. Cells are allowed to attach for 6 hours. Test compounds are serially diluted 3.16-fold in 100% DMSO to generate a 7-point concentration curve. A solution of test compound (1 μL, 200× in DMSO) is added to each cell-containing well and the plate is incubated for 24 hours in a cell culture incubator (37° C., 5% CO2, 100% relative humidity). 2 replicates are prepared for each test compound concentration. The cells are then lysed in the Cells-To-Ct lysis buffer and the lysate is stored at −80° C.
Full length SMN2-A minigene and GAPDH mRNA are quantified using the primers and probes referenced in Table 2. Primer SMN Forward A (SEQ ID NO.1) hybridizes to a nucleotide sequence in exon 7 (nucleotide 22 to nucleotide 40), primer SMN Reverse A (SEQ ID NO.2) hybridizes to a nucleotide sequence in the coding sequence of Firefly luciferase, SMN Probe A (SEQ ID NO.3) hybridizes to a nucleotide sequence in exon 7 (nucleotide 50 to nucleotide 54) and exon 8 (nucleotide 1 to nucleotide 21). The combination of these three oligonucleotides detects only SMN1 or SMN2 minigenes (RT-qPCR) and will not detect endogenous SMN1 or SMN2 genes.
The SMN forward and reverse primers are used at final concentrations of 0.4 μM. The SMN probe is used at a final concentration of 0.15 μM. The GAPDH primers are used at final concentrations of 0.2 μM and the probe at 0.15 μM.
The SMN2-minigene GAPDH mix (15 μL total volume) is prepared by combining 7.5 of 2×RT-PCR buffer, 0.4 μL of 25×RT-PCR enzyme mix, 0.75 μL of 20× GAPDH primer-probe mix, […] of water, 2 μL of 10-fold diluted cell lysate, 0.06 μL of 100 μM SMN forward primer, 0.06 μL of 100 μM SMN reverse primer, and 0.225 μL of 100 μM SMN probe.
PCR is carried out at the following temperatures for the indicated time: Step 1: 48° C. (15 min); Step 2: 95° C. (10 min); Step 3: 95° C. (15 sec); Step 4: 60° C. (1 min); then repeat Steps 3 and 4 for a total of 40 cycles.
Each reaction mixture contains both SMN2-A minigene and GAPDH primers/probe sets (multiplex design), allowing simultaneous measurement of the levels of two transcripts.
The increase in the abundance of the FL SMN2mini mRNA relative to that in cells treated with vehicle control is determined from real-time PCR data using a modified ΔΔCt method (as described in Livak and Schmittgen, Methods, 2001, 25:402-8). The amplification efficiency E is calculated from the slope of the amplification curve for FL SMN2mini and GAPDH individually. The abundance of FL SMN2mini and GAPDH mRNA are then calculated as (1+E)^−Ct, where Ct is the threshold value for each amplicon. The abundance of FL SMN2mini mRNA is normalized to GAPDH mRNA abundance. The normalized FL SMN2mini mRNA abundance from test compound-treated samples is then divided by normalized FL SMN2mini mRNA abundance from vehicle-treated cells to determine the level of FL SMN2mini mRNA relative to vehicle control. […]

[2] = system: SMN protein in SMA patient fibroblast cells (GM03813); assay: SMN protein assay (HTRF) in cultured cells; type: cell-based; settings: Homo sapiens, SMA Type 1 patient fibroblasts, 48 hours; for EC (1.5-fold): 7-point concentration curve, concentration giving 1.5 times SMN protein vs vehicle, read-out: EC1.5x SMN protein (EC1.5x concentration for SMN protein expression); for maximal fold induction: fold increase relative to vehicle control, read-out: Max. fold increase of SMN protein
Description: The SMN HTRF (homogeneous time resolved fluorescence) assay is used to quantify the level of SMN protein in SMA patient fibroblast cells treated with test compounds. Materials used and respective sources are listed below in Table 4.
Cells are thawed and cultured in DMEM-10% FBS for 72 hours. Cells are trypsinized, counted and re-suspended to a concentration of 25,000 cells/mL in DMEM-10% FBS. The cell suspensions are plated at 5,000 cells per well in a 96 well microtiter plate and incubated for 3 to 5 hours. Test compounds are serially diluted 3.16-fold in 100% DMSO to generate a 7-point concentration curve. 1 μL of test compound solution is transferred to cell-containing wells and cells are incubated for 48 hours in a cell culture incubator (37° C., 5% CO2, 100% relative humidity). Triplicate samples are set up for each test compound concentration. After 48 hours, the supernatant is removed from the wells and 25 μL of the RIPA lysis buffer, containing protease inhibitors, is added to the wells and incubated with shaking at room temperature for 1 hour. 25 μL of the diluent is added and then 35 μL of the resulting lysate is transferred to a 384-well plate, where each well contains 5 μL of the antibody solution (1:100 dilution of anti-SMN d2 and anti-SMN cryptate in SMN reconstitution buffer). The plate is centrifuged for 1 minute to bring the solution to the bottom of the wells, then incubated overnight at room temperature. Fluorescence for each well of the plate at 665 nm and 620 nm is measured on an EnVision multilabel plate reader (Perkin-Elmer).
The normalized fluorescence signal is calculated for each sample, Blank and vehicle control well by dividing the signal at 665 nm by the signal at 620 nm. Normalizing the signal accounts for possible fluorescence quenching due to the matrix effect of the lysate. The ΔF value (a measurement of SMN protein abundance as a percent value) for each sample well is calculated by subtracting the normalized average fluorescence for the Blank control wells from the normalized fluorescence for each sample well, then dividing this difference by the normalized average fluorescence for the Blank control wells and multiplying the resulting value by 100. The ΔF value for each sample well represents the SMN protein abundance from test compound-treated samples. The ΔF value for each sample well is divided by the ΔF value for the vehicle control wells to calculate the fold increase in SMN protein abundance relative to the vehicle control. Table 5 provides EC1.5× concentrations for SMN protein expression that was obtained from the 7-point concentration data generated according to the above procedure for particular compounds of the present invention.
Table 6 provides the maximum fold increase of SMN protein that was obtained from the 7-point concentration data generated according to the above procedure for particular compounds of the present invention

SMILES | EC (1.5-fold) [1] [µM] | EC (1.5-fold) [2] [µM] | maximal fold induction [2]
COc1cc(N2CCNC3(CC3)C2)ccc1C(=O)Nc1cn2cc(C)nc2cn1 [Example 34, 4-(4,7-diazaspiro[2.5]octan-7-yl)-2-methoxy-N-(2-methylimidazo[1,2-a]pyrazin-6-yl)benzamide] | 0.214 | 1.25 | 1.69
Cc1cn2cc(NC(=O)c3ccc(N4CCC(N5CCCC5)CC4)cc3F)nc(C)c2n1 [Example 48, N-(2,8-dimethylimidazo[1,2-a]pyrazin-6-yl)-2-fluoro-4-(4-pyrrolidin-1-ylpiperidin-1-yl)benzamide] | 0.0266 | 0.23 | 1.65
CCOc1cc(N2CCN3CCC[C@@H]3C2)ccc1C(=O)Nc1cn2cc(C)nc2cn1 [Example 6, 4-[(8aR)-3,4,6,7,8,8a-hexahydro-1H-pyrrolo[1,2-a]pyrazin-2-yl]-2-ethoxy-N-(2-methylimidazo[1,2-a]pyrazin-6-yl)benzamide] | 0.101 | 0.428 | 1.71
Cc1cn2cc(NC(=O)c3ccc(N4CCN5CCC[C@H]5C4)cc3F)nc(C3CC3)c2n1 [Example 17, 4-[(8aS)-3,4,6,7,8,8a-hexahydro-1H-pyrrolo[1,2-a]pyrazin-2-yl]-N-(8-cyclopropyl-2-methylimidazo[1,2-a]pyrazin-6-yl)-2-fluorobenzamide] | 0.0338 | 1.7 | 1.51
CC[C@@H]1CN(c2ccc(C(=O)Nc3cn4cc(C)nc4cn3)c(OC)n2)CCN1 [Example 46, 6-[(3R)-3-ethylpiperazin-1-yl]-2-methoxy-N-(2-methylimidazo[1,2-a]pyrazin-6-yl)pyridine-3-carboxamide hydrochloride] | 0.189 | 0.58 | 1.67
Cc1cn2cc(NC(=O)c3ccc(N4CCNCC4)cc3)ncc2n1 [Example 2, N-(2-methylimidazo[1,2-a]pyrazin-6-yl)-4-piperazin-1-ylbenzamide hydrochloride] | 1.05 | 2.25 | 1.74
CCOc1cc(N2CCN[C@@H](C)C2)ccc1C(=O)Nc1cn2cc(C)nc2cn1 [Example 4, 2-ethoxy-N-(2-methylimidazo[1,2-a]pyrazin-6-yl)-4-[(3S)-3-methylpiperazin-1-yl]benzamide] | 0.0263 | 0.122 | 1.92
CC[C@H]1CN(c2ccc(C(=O)Nc3cn4cc(C)nc4cn3)c(F)c2)CCN1 [Example 42, 4-[(3S)-3-ethylpiperazin-1-yl]-2-fluoro-N-(2-methylimidazo[1,2-a]pyrazin-6-yl)benzamide hydrochloride] | 0.0144 | 0.231 | 1.72
CC[C@@H]1CN(c2ccc(C(=O)Nc3cn4cc(C)nc4cn3)c(F)c2)CCN1 [Example 32, 4-[(3R)-3-ethylpiperazin-1-yl]-2-fluoro-N-(2-methylimidazo[1,2-a]pyrazin-6-yl)benzamide hydrochloride] | 0.0268 | 0.126 | 1.81
CCOc1cc(N2C[C@@H](C)N[C@@H](C)C2)ccc1C(=O)Nc1cn2cc(C)nc2cn1 [Example 10, 4-[(3S,5R)-3,5-dimethylpiperazin-1-yl]-2-ethoxy-N-(2-methylimidazo[1,2-a]pyrazin-6-yl)benzamide] | 0.0383 | 0.13 | 1.91
Cc1cn2cc(NC(=O)c3ccc(N4CCN5CCC[C@@H]5C4)cc3F)ncc2n1 [Example 7, 4-[(8aR)-3,4,6,7,8,8a-hexahydro-1H-pyrrolo[1,2-a]pyrazin-2-yl]-2-fluoro-N-(2-methylimidazo[1,2-a]pyrazin-6-yl)benzamide] | 0.0484 | 0.872 | 1.64
CC[C@@H]1CN(c2ccc(C(=O)Nc3cn4cc(C)nc4cn3)c(OC)c2)CCN1 [Example 40, 4-[(3R)-3-ethylpiperazin-1-yl]-2-methoxy-N-(2-methylimidazo[1,2-a]pyrazin-6-yl)benzamide] | 0.038 | 0.388 | 1.93
Cc1cn2cc(NC(=O)c3ccc(N4CC[C@H](N5CCCC5)C4)cc3F)ncc2n1 [Example 24, 2-fluoro-N-(2-methylimidazo[1,2-a]pyrazin-6-yl)-4-[(3S)-3-pyrrolidin-1-ylpyrrolidin-1-yl]benzamide] | 0.051 | 0.113 | 1.75
Cc1cn2cc(NC(=O)c3ccc(N4CCN5CCC[C@H]5C4)cc3F)nc(C)c2n1 [Example 13, 4-[(8aS)-3,4,6,7,8,8a-hexahydro-1H-pyrrolo[1,2-a]pyrazin-2-yl]-N-(2,8-dimethylimidazo[1,2-a]pyrazin-6-yl)-2-fluorobenzamide] | 0.0262 | 0.109 | 1.66
Cc1cn2cc(NC(=O)c3ccc(N4CCN[C@H](C)C4)cc3F)nc(C)c2n1 [Example 11, N-(2,8-dimethylimidazo[1,2-a]pyrazin-6-yl)-2-fluoro-4-[(3R)-3-methylpiperazin-1-yl]benzamide] | 0.0164 | 0.0522 | 1.8

From patent US9975900B2, “Substituted imidazo[1,2-α]pyrazines for treating spinal muscular atrophy” (Hoffmann-La Roche Inc., priority 2014, dated 2018)
